Source: ChEMBL document CHEMBL4400580, “Expanded Structure-Activity Studies of Lipoxazolidinone Antibiotics” (ACS Med Chem Lett, 2019)
Converted amounts (≈) assume the structure as drawn.

Assays:
Staphylococcus aureus [1] = experiment: Antimicrobial activity against methicillin-sensitive Staphylococcus aureus ATCC 29213 measured after 16 hrs by broth microdilution method; assay type: functional; conditions: ATCC 29213, 16 h
Staphylococcus aureus [2] = experiment: Antimicrobial activity against methicillin-resistant Staphylococcus aureus ATCC 33591 measured after 16 hrs by broth microdilution method; assay type: functional; conditions: ATCC 33591, 16 h
A549 = experiment: Cytotoxicity against human A549 cells assessed as reduction in cell viability measured after 72 hrs by ATP-liteM luciferin-luciferase assay; assay type: cell-based; conditions: A549, 72 h
Escherichia coli [3] = experiment: Antimicrobial activity against Escherichia coli SQ110 DTC measured after 16 hrs by broth microdilution method; assay type: functional
Escherichia coli [4] = experiment: Antimicrobial activity against Escherichia coli SQ110 LPTD measured after 16 hrs by broth microdilution method; assay type: functional
[5] = Hemolysis in red blood cells (unknown origin) up to 40 uM; assay type: ADME, cell-based, Erythrocyte; conditions: read-out: Activity
Escherichia coli [6] = experiment: Antimicrobial activity against Escherichia coli SQ110 measured after 16 hrs by broth microdilution method; assay type: functional; conditions: SQ110, 16 h
Acinetobacter baumannii = experiment: Antimicrobial activity against Acinetobacter baumannii ATCC 19606 measured after 16 hrs by broth microdilution method; assay type: functional; conditions: ATCC 19606 = CIP 70.34 = JCM 6841, 16 h

SMILES	MIC (Staphylococcus aureus [1]) [µg/mL]	MIC (Staphylococcus aureus [2]) [µg/mL]	IC50 (A549) [µg/mL]	MIC (Escherichia coli [3]) [µg/mL]	MIC (Escherichia coli [4]) [µg/mL]	hemolysis [5] [%]	MIC (Escherichia coli [6]) [µg/mL]	MIC (Acinetobacter baumannii) [µg/mL]
CC(C)[C@@H]1O/C(=C/C(=O)Cc2ccc(OC(F)(F)F)cc2)NC1=O	2 (≈ 5.83 µM)	0.5 (≈ 1.46 µM)	14 (≈ 40.8 µM)	0.06 (≈ 0.175 µM)	32 (≈ 93.2 µM)	< 1	> 128	–
CC(C)[C@@H]1O/C(=C/C(=O)Cc2ccc(C(F)(F)F)cc2)NC1=O	4 (≈ 12.2 µM)	2 (≈ 6.11 µM)	–	–	–	–	–	128 (≈ 391 µM)
CC(C)[C@@H]1O/C(=C/C(=O)Cc2ccc(Br)cc2)NC1=O	1 (≈ 2.96 µM)	0.5 (≈ 1.48 µM)	–	–	–	–	–	64 (≈ 189 µM)
CC(C)[C@@H]1O/C(=C/C(=O)CCc2ccc(Cl)cc2)NC1=O	2 (≈ 6.5 µM)	0.5 (≈ 1.62 µM)	–	–	–	–	–	128 (≈ 416 µM)
CC(C)[C@@H]1O/C(=C/C(=O)Cc2ccc(C#N)cc2)NC1=O	8 (≈ 28.1 µM)	4 (≈ 14.1 µM)	–	–	–	–	–	–
Cc1ccc(C)c(CC(=O)/C=C2\NC(=O)[C@H](C(C)C)O2)c1	16 (≈ 55.7 µM)	8 (≈ 27.8 µM)	–	–	–	–	–	–
CC(C)[C@@H]1O/C(=C/C(=O)Cc2cc(F)c(F)c(F)c2)NC1=O	8 (≈ 25.5 µM)	4 (≈ 12.8 µM)	–	–	–	–	–	–
CC(C)[C@@H]1O/C(=C/C(=O)CCc2ccc(C(F)(F)F)cc2)NC1=O	2 (≈ 5.86 µM)	0.5 (≈ 1.46 µM)	–	–	–	–	–	–
CC(C)[C@@H]1O/C(=C/C(=O)Cc2ccc([N+](=O)[O-])cc2)NC1=O	64 (≈ 210 µM)	8 (≈ 26.3 µM)	–	–	–	–	–	–
CC(C)[C@@H]1O/C(=C/C(=O)Cc2ccc(N)cc2)NC1=O	> 128	64 (≈ 233 µM)	–	–	–	–	–	–
CC(C)[C@@H]1O/C(=C/C(=O)Cc2ccc(-c3ccccc3)cc2)NC1=O	0.25 (≈ 0.745 µM)	0.125 (≈ 0.373 µM)	–	0.25 (≈ 0.745 µM)	32 (≈ 95.4 µM)	–	> 128	> 128
CC(C)[C@@H]1O/C(=C/C(=O)Cc2cccc(Br)c2)NC1=O	16 (≈ 47.3 µM)	2 (≈ 5.91 µM)	–	–	–	–	–	–
CC(C)[C@@H]1O/C(=C/C(=O)CCc2ccc(F)cc2)NC1=O	16 (≈ 54.9 µM)	8 (≈ 27.5 µM)	–	–	–	–	–	–
COc1ccc(OC)c(CC(=O)/C=C2\NC(=O)[C@H](C(C)C)O2)c1	16 (≈ 50.1 µM)	4 (≈ 12.5 µM)	–	–	–	–	–	–
CC(C)[C@@H]1O/C(=C/C(=O)CCc2ccc(Br)cc2)NC1=O	2 (≈ 5.68 µM)	1 (≈ 2.84 µM)	–	–	–	–	–	128 (≈ 363 µM)
CC(C)[C@@H]1O/C(=C/C(=O)Cc2cc(F)ccc2F)NC1=O	16 (≈ 54.2 µM)	8 (≈ 27.1 µM)	–	–	–	–	–	–
COc1ccc(OC)c(CCC(=O)/C=C2\NC(=O)[C@H](C(C)C)O2)c1	4 (≈ 12 µM)	8 (≈ 24 µM)	–	–	–	–	–	> 128
CC(C)[C@@H]1O/C(=C/C(=O)Cc2ccc(C(C)(C)C)cc2)NC1=O	4 (≈ 12.7 µM)	2 (≈ 6.34 µM)	–	–	–	–	–	–
CC(=O)NC[C@H]1CN(c2ccc(N3CCOCC3)c(F)c2)C(=O)O1 [LINEZOLID]	1 (≈ 2.96 µM)	0.5 (≈ 1.48 µM)	–	2 (≈ 5.93 µM)	32 (≈ 94.9 µM)	–	> 128	64 (≈ 190 µM)
CC(C)[C@@H]1O/C(=C/C(=O)CCCCCc2ccccc2)NC1=O	4 (≈ 12.7 µM)	2 (≈ 6.34 µM)	–	–	–	–	–	128 (≈ 406 µM)
CCCCCCCCCC(=O)/C=C1\NC(=O)[C@H](C(C)C)O1	0.5 (≈ 1.69 µM)	–	10 (≈ 33.8 µM)	1 to 2 (≈ 3.38 to 6.77 µM)	32 (≈ 108 µM)	< 1	> 128	–
CC(C)[C@@H]1O/C(=C/C(=O)Cc2ccc(Cl)cc2)NC1=O	2 (≈ 6.81 µM)	0.5 (≈ 1.7 µM)	–	–	–	–	–	64 (≈ 218 µM)
CC(C)[C@@H]1O/C(=C/C(=O)CCc2ccccc2)NC1=O	8 (≈ 29.3 µM)	4 (≈ 14.6 µM)	–	–	–	–	–	128 (≈ 468 µM)
CC(C)[C@@H]1O/C(=C/C(=O)Cc2ccccc2)NC1=O	4 (≈ 15.4 µM)	2 (≈ 7.71 µM)	–	2 (≈ 7.71 µM)	32 (≈ 123 µM)	–	> 128	–
CC(C)[C@@H]1O/C(=C/C(=O)Cc2ccc(F)cc2)NC1=O	4 (≈ 14.4 µM)	2 (≈ 7.21 µM)	–	–	–	–	–	–
CC(C)[C@@H]1O/C(=C/C(=O)Cc2ccccc2Br)NC1=O	16 (≈ 47.3 µM)	8 (≈ 23.7 µM)	–	–	–	–	–	–
Cc1ccc(CCC(=O)/C=C2\NC(=O)[C@H](C(C)C)O2)cc1	16 (≈ 55.7 µM)	8 (≈ 27.8 µM)	–	–	–	–	–	–
Cc1ccc(CC(=O)/C=C2\NC(=O)[C@H](C(C)C)O2)cc1	4 (≈ 14.6 µM)	2 (≈ 7.32 µM)	–	–	–	–	–	128 (≈ 468 µM)
CC(C)[C@@H]1O/C(=C/C(=O)CCc2ccc(C(C)(C)C)cc2)NC1=O	2 (≈ 6.07 µM)	0.25 (≈ 0.759 µM)	–	–	–	–	–	–
